Assay results as given in ChEMBL document CHEMBL5376003, “Structure-Activity Relationship of FL118 Platform Position 7 Versus Position 9-Derived Compounds and Their Mechanism of Action and Antitumor Activity” (J Med Chem, 2023).
Activity calls are given as the source filed them.

Experiments:
[1] = tested on: HCT-116; test: Induction of apoptosis in human HCT-116 cells assessed as modulation of TOP2A mRNA expression at 10 to 500 nM incubated for 6 to 48 hrs by RNA analysis; assay type: functional, cell-based; conditions: dose 10-500 nM, time 6-48 hrs
[2] = tested on: HCT-116; test: Induction of apoptosis in human HCT-116 cells assessed as modulation of DDX54 mRNA expression at 10 to 500 nM incubated for 6 to 48 hrs by RNA analysis; assay type: functional, cell-based; conditions: dose 10-500 nM, time 6-48 hrs
[3] = tested on: HCT-116; test: Induction of apoptosis in human HCT-116 cells assessed as modulation of TOP2B mRNA expression at 10 to 500 nM incubated for 6 to 48 hrs by RNA analysis; assay type: functional, cell-based; conditions: dose 10-500 nM, time 6-48 hrs
[4] = tested on: HCT-116; test: Induction of apoptosis in human HCT-116 cells assessed as upregulation of GADD45A mRNA expression at 10 to 500 nM incubated for 6 to 48 hrs by RNA analysis; assay type: functional, cell-based; conditions: dose 10-500 nM, time 6-48 hrs
[5] = tested on: HCT-116; test: Induction of apoptosis in human HCT-116 cells assessed as upregulation of XPC mRNA expression at 10 to 500 nM incubated for 6 to 48 hrs by RNA analysis; assay type: functional, cell-based; conditions: dose 10-500 nM, time 6-48 hrs
[6] = tested on: HCT-116; test: Induction of apoptosis in human HCT-116 cells assessed as downregulation of UMPS gene expression at 10 to 500 nM incubated for 6 to 48 hrs by RNA analysis; assay type: functional, cell-based; conditions: dose 10-500 nM, time 6-48 hrs
[7] = tested on: HCT-116; test: Induction of apoptosis in human HCT-116 cells assessed as downregulation of TYMS gene expression at 10 to 500 nM incubated for 6 to 48 hrs by RNA analysis; assay type: functional, cell-based; conditions: dose 10-500 nM, time 6-48 hrs
[8] = tested on: HCT-116; test: Induction of apoptosis in human HCT-116 cells assessed as downregulation of PPP2CA gene expression at 10 to 500 nM incubated for 6 to 48 hrs by RNA analysis; assay type: functional, cell-based; conditions: dose 10-500 nM, time 6-48 hrs
[9] = tested on: HCT-116; test: Induction of apoptosis in human HCT-116 cells assessed as modulation of DDX47 mRNA expression at 10 to 500 nM incubated for 6 to 48 hrs by RNA analysis; assay type: functional, cell-based; conditions: dose 10-500 nM, time 6-48 hrs
[10] = tested on: HCT-116; test: Induction of apoptosis in human HCT-116 cells assessed as downregulation of NT5C3A gene expression at 10 to 500 nM incubated for 6 to 48 hrs by RNA analysis; assay type: functional, cell-based; conditions: dose 10-500 nM, time 6-48 hrs
[11] = tested on: HCT-116; test: Induction of apoptosis in human HCT-116 cells assessed as upregulation of USP11 mRNA expression at 10 to 500 nM incubated for 6 to 48 hrs by RNA analysis; assay type: functional, cell-based; conditions: dose 10-500 nM, time 6-48 hrs
[12] = tested on: HCT-116; test: Activation of innate immune response in human HCT-116 cells assessed as upregulation of IFIH1 gene expression at 10 to 500 nM incubated for 6 to 48 hrs by RNA analysis; assay type: functional, cell-based; conditions: dose 10-500 nM, time 6-48 hrs
[13] = tested on: HCT-116; test: Induction of apoptosis in human HCT-116 cells assessed as downregulation of HK2 gene expression at 10 to 500 nM incubated for 6 to 48 hrs by RNA analysis; assay type: functional, cell-based; conditions: dose 10-500 nM, time 6-48 hrs
[14] = tested on: HCT-116; test: Induction of apoptosis in human HCT-116 cells assessed as downregulation of SLC25A13 gene expression at 10 to 500 nM incubated for 6 to 48 hrs by RNA analysis; assay type: functional, cell-based; conditions: dose 10-500 nM, time 6-48 hrs
[15] = tested on: HCT-116; test: Induction of apoptosis in human HCT-116 cells assessed as downregulation of NUP133 gene expression at 10 to 500 nM incubated for 6 to 48 hrs by RNA analysis; assay type: functional, cell-based; conditions: dose 10-500 nM, time 6-48 hrs
[16] = tested on: HCT-116; test: Induction of apoptosis in human HCT-116 cells assessed as downregulation of TK1 gene expression at 10 to 500 nM incubated for 6 to 48 hrs by RNA analysis; assay type: functional, cell-based; conditions: dose 10-500 nM, time 6-48 hrs
[17] = tested on: HCT-116; test: Activation of innate immune response in human HCT-116 cells assessed as upregulation of IRF3 gene expression at 10 to 500 nM incubated for 6 to 48 hrs by RNA analysis; assay type: functional, cell-based; conditions: dose 10-500 nM, time 6-48 hrs
[18] = tested on: HCT-116; test: Induction of apoptosis in human HCT-116 cells assessed as upregulation of Bax mRNA expression at 10 to 500 nM incubated for 6 to 48 hrs by RNA analysis; assay type: functional, cell-based; conditions: dose 10-500 nM, time 6-48 hrs
[19] = tested on: HCT-116; test: Induction of apoptosis in human HCT-116 cells assessed as downregulation of AMPD3 gene expression at 10 to 500 nM incubated for 6 to 48 hrs by RNA analysis; assay type: functional, cell-based; conditions: dose 10-500 nM, time 6-48 hrs
[20] = tested on: HCT-116; test: Induction of apoptosis in human HCT-116 cells assessed as modulation of DDX55 mRNA expression at 10 to 500 nM incubated for 6 to 48 hrs by RNA analysis; assay type: functional, cell-based; conditions: dose 10-500 nM, time 6-48 hrs
[21] = tested on: HCT-116; test: Activation of innate immune response in human HCT-116 cells assessed as upregulation of IRF7 gene expression at 10 to 500 nM incubated for 6 to 48 hrs by RNA analysis; assay type: functional, cell-based; conditions: dose 10-500 nM, time 6-48 hrs
[22] = tested on: HCT-116; test: Induction of apoptosis in human HCT-116 cells assessed as downregulation of BCL2 mRNA expression at 10 to 500 nM incubated for 6 to 48 hrs by RNA analysis; assay type: functional, cell-based; conditions: dose 10-500 nM, time 6-48 hrs
[23] = tested on: HCT-116; test: Induction of apoptosis in human HCT-116 cells assessed as upregulation of ATF3 mRNA expression at 10 to 500 nM incubated for 6 to 48 hrs by RNA analysis; assay type: functional, cell-based; conditions: dose 10-500 nM, time 6-48 hrs
[24] = tested on: HCT-116; test: Induction of apoptosis in human HCT-116 cells assessed as downregulation of AAAS gene expression at 10 to 500 nM incubated for 6 to 48 hrs by RNA analysis; assay type: functional, cell-based; conditions: dose 10-500 nM, time 6-48 hrs
[25] = tested on: HCT-116; test: Induction of apoptosis in human HCT-116 cells assessed as downregulation of GART gene expression at 10 to 500 nM incubated for 6 to 48 hrs by RNA analysis; assay type: functional, cell-based; conditions: dose 10-500 nM, time 6-48 hrs
[26] = tested on: HCT-116; test: Induction of apoptosis in human HCT-116 cells assessed as downregulation of TPI1 gene expression at 10 to 500 nM incubated for 6 to 48 hrs by RNA analysis; assay type: functional, cell-based; conditions: dose 10-500 nM, time 6-48 hrs
[27] = tested on: HCT-116; test: Induction of apoptosis in human HCT-116 cells assessed as downregulation of PCK2 gene expression at 10 to 500 nM incubated for 6 to 48 hrs by RNA analysis; assay type: functional, cell-based; conditions: dose 10-500 nM, time 6-48 hrs
[28] = tested on: HCT-116; test: Induction of apoptosis in human HCT-116 cells assessed as downregulation of NT5C gene expression at 10 to 500 nM incubated for 6 to 48 hrs by RNA analysis; assay type: functional, cell-based; conditions: dose 10-500 nM, time 6-48 hrs
[29] = tested on: HCT-116; test: Induction of apoptosis in human HCT-116 cells assessed as modulation of DDX17 mRNA expression at 10 to 500 nM incubated for 6 to 48 hrs by RNA analysis; assay type: functional, cell-based; conditions: dose 10-500 nM, time 6-48 hrs
[30] = tested on: HCT-116; test: Induction of apoptosis in human HCT-116 cells assessed as modulation of DDX21 mRNA expression at 10 to 500 nM incubated for 6 to 48 hrs by RNA analysis; assay type: functional, cell-based; conditions: dose 10-500 nM, time 6-48 hrs
[31] = tested on: PDX14244; test: Antitumor activity against human PDX14244 cells xenografted in SCID mouse model assessed as reduction in tumor volume at 2 mg/kg,po administrated once per week for 3 weeks; assay type: functional, organism-based
[32] = tested on: PDX27454; test: Antitumor activity against human PDX27454 cells xenografted in SCID mouse model assessed as reduction in tumor volume at 2 mg/kg,po administrated once per week for 3 weeks; assay type: functional, organism-based
[33] = tested on: HCT-116; test: Induction of apoptosis in human HCT-116 cells assessed as downregulation of MCL-1 protein expression incubated for 48 hrs by Western blotting analysis; assay type: functional, cell-based

Measured: Activity

CC[C@@]1(O)C(=O)OCc2c1cc1n(c2=O)Cc2cc3cc4c(cc3nc2-1)OCO4
not listed: [31] | [32] | [33]
active: all other assays above

CC[C@@]1(O)C(=O)OCc2c1cc1n(c2=O)Cc2c-1nc1cc3c(cc1c2-c1cc(OC)cc(OC)c1)OCO3
not listed: [9]
active: all other assays above

CCc1ccc(-c2c3c(nc4cc5c(cc24)OCO5)-c2cc4c(c(=O)n2C3)COC(=O)[C@]4(O)CC)cc1
active: all assays above

CC[C@@]1(O)C(=O)OCc2c1cc1n(c2=O)Cc2c-1nc1cc3c(cc1c2-c1ccc(OC)cc1)OCO3
active: all assays above
